According to patent US12600740B2, “Fluorinated N-acetyl glucosamine analogs and xylose derivatives” (UTI Limited Partnership, priority 2018, dated 2026):
“Also recorded” adds a separate entry of the source. Structures can show the parent of a compound that is named as a salt.

Legend:
[1] = system: CSPG production by astrocytes; test: Western blot of astrocyte conditioned medium, MAB2030 (chondroitin sulfate GAG stubs); assay type: cell-based, mouse; conditions: astrocyte conditioned media, 50 μM, 48 hours
From the text: Astrocytes are major producers of CSPGs following injury in the CNS [Jones, L. L., Margolis, R. U. & Tuszynski, M. H. The chondroitin sulfate proteoglycans neurocan, brevican, phosphacan, and versican are differentially regulated following spinal cord injury. Experimental Neurology 182, 399-411 (2003); Tang, X., Davies, J. E. & Davies, S. J. Changes in distribution, cell associations, and protein expression levels of NG2, neurocan, phosphacan, brevican, versican V2, and tenascin-C during acute to chronic maturation of spinal cord scar tissue. […] The Journal of neuroscience: the official journal of the Society for Neuroscience 20, 2427-2438 (2000); McKeon, R. J., Jurynec, M. J. & Buck, C. R. The chondroitin sulfate proteoglycans neurocan and phosphacan are expressed by reactive astrocytes in the chronic CNS glial scar. The Journal of neuroscience: the official journal of the Society for Neuroscience 19, 10778-10788 (1999); Haas, C. A., Rauch, U., Thon, N., Merten, T. & Deller, T. Entorhinal cortex lesion in adult rats induces the expression of the neuronal chondroitin sulfate proteoglycan neurocan in reactive astrocytes. The Journal of neuroscience: the official journal of the Society for Neuroscience 19, 9953-9963 (1999)] and they may help drive progression of disability in a model of progressive MS [Mayo, L. et al. Regulation of astrocyte activation by glycolipids drives chronic CNS inflammation. Nature medicine 20, 1147-1156 (2014)]. Therefore astrocytes were used as model cells to determine the ability of the sugar analogs to reduce synthesis of CSPGs. Since CSPGs are exported out of cells, the conditioned media from analog-treated astrocytes were probed by Western blots (FIG. 4). We used antibodies to both the stubs of chondroitin sulfate GAGs attached to the core protein (MAB2030) and to intact 4-sulfated chondroitin sulfate sidechains (2H6) (FIG. 4a). Particularly, we used the 2H6 antibody to label intact 4-sulfated chondroitin sulfate sidechains, and the MAB2030 antibody to detect the stubs of chondroitin sulfate GAGs attached to the core protein. […] 1998, 160 (8), 3812-3819. Poole Poole C. A.; Glant T. T.; Schofield J. R.; Chondrons from articular cartilage. (IV). Immunolocalization of proteoglycan epitopes in isolated canine tibial chondrons. J. Histochem. Cytochem. 1991, 39 (9), 1175-1187].
Astrocytes were plated in uncoated 6-well plates (3 replicate wells per treatment) at 1×10^6 cells/well in mixed glial media, and incubated at 5% CO2 and 37° C. Astrocytes were treated with compounds at 50 μM in AIM-V media for 48 hours. Media was pooled from 3 replicate wells in 15 ml 100K cutoff centricon tubes (EMD Millipore, #UFC905008), which were spun on an ultracentrifuge at 5000× g for 2 cycles of 10 minutes each. When harvested, the cell lysate was kept on ice for 5 minutes with 250 μL of RIPA buffer (ThermoFisher Scientific #89900) containing proteinase inhibitor, and then collected and centrifuged at 14000 g for 5 minutes. Total protein was quantified using a Bradford assay. Conditioned media that were to be probed for chondroitin 4-sulfate GAGs (Millipore, #MAB2030) were first digested with 0.2 U/ml chondroitinase ABC for overnight at 37° C. to remove chondroitin sulfate sidechains. Blots that were to be probed with CSA (2H6, Cosmo) or CS56 (Abcam #ab11570) were not exposed to chondroitinase ABC. Samples were heat denatured with NuPAGE® LDS Sample buffer at 70° C. for 10 minutes and then loaded into 3-8% tris-acetate pre-cast gels (ThermoFisher, #EA0478BOX). The gels were electrophoresed at a constant 150 V for 90 minutes and transferred to a […] polyvinylidene fluoride membrane at a constant 250 mA for 60 minutes. The membranes were blocked for one hour with 10% skim milk in Tris-buffered saline (TBS; 0.9% NaCl, 10 mM Tris-HCl, pH 7.5) containing 0.5% Tween 20 (TBS-T). Primary antibodies were added in 3% skim milk and incubated overnight at 4° C. […]

[2] = system: oligodendrocyte precursor cells (OPCs); test: Growth of OPCs on astrocyte-secreted extracellular matrix; assay type: cell-based, mouse; conditions: astrocytes treated 48 hours, then removed; OPCs plated on matrix
From the text: The process of remyelination requires oligodendrocyte lineage cells to undergo process outgrowth prior to their expression of mature myelin proteins for repair. Thus, process outgrowth in culture by cells of the oligodendrocyte lineage has been used as one surrogate for myelinating potential in vivo [Keough, M. B.; Rogers, J. A.; Zhang, P.; Jensen, S. K.; Stephenson, E. L.; Chen, T.; Hurlbert, M. G.; Lau, L. W.; Rawji, K. S.; Plemel, J. R. et al. An inhibitor of chondroitin sulfate proteoglycan synthesis promotes central nervous system remyelination. Nat. Commun. 2016, 7, 11312], since an oligodendrocyte needs to elaborate multiple protrusions emanating in several directions to contact many axons, and where these processes then compact around axons to form myelin segments. The presence of CSPGs in culture impairs the process outgrowth of OPCs, and this has been linked to reduced remyelination capacity in vivo [Keough, M. B.; Rogers, J. A.; Zhang, P.; Jensen, S. K.; Stephenson, E. L.; Chen, T.; Hurlbert, M. G.; Lau, L. W.; Rawji, K. S.; Plemel, J. R. et al. An inhibitor of chondroitin sulfate proteoglycan synthesis promotes central nervous system remyelination. Nat. Commun. 2016, 7, 11312]. It was reported previously that astrocytes in culture produce a plate-bound matrix abundant in CSPGs, that is left behind once astrocytes are removed from the plate, and this CSPG-containing matrix inhibits the outgrowth of plated OPCs [Keough, M. B. et al. An inhibitor of chondroitin sulfate proteoglycan synthesis promotes central nervous system remyelination. Nature communications 7, 11312 (2016)] (FIG. 7a). Thus, astrocytes were treated with test compounds for 48 hours and they were then removed from the cell culture plate leaving only their secreted ECM behind (FIG. 7a). When OPCs were plated on the astrocyte matrix, the extent of their process outgrowth over […] of observation was inhibited (FIG. 7b). […] OPCs growing in the absence of astrocyte ECM can reach a mean outgrowth around 300 μm (FIG. 7b,c). […] These compounds were: Ac-4,4-diF-GlcNAc 16 (Ac-4,4-diF-GlcNAc), fluorosamine 3 and its O1-deacetylated analog 10 (Ac-4-F-GlcNAcOH), anomeric O-propanoate 7, anomeric O-butanoate 8 (Ac-4-F-GlcNAcOBu), and the 4-fluorinated GalNAc derivative 13 (Ac-4-F-GalNAc) (FIG. 7c).
In brief, cortices from postnatal days 1-3 mouse brains were dissociated with papain digestion and then plated as a mixed culture for 7 days in a 37° C. incubator at 8.5% CO2 whereupon OPCs and microglia tended to be loosely attached on top of a monolayer of astrocytes; the OPCs and microglia were then shaken off when placed on an orbital shaker at 220 r.p.m. at 37° C. and 5% CO2 overnight. The media containing microglia and OPCs were collected and added to a 100 mm tissue culture dish and left at 37° C. and 5% CO2 for 30 min, to allow preferential adhesion of microglia. The media were collected again, now containing OPCs, and used as the OPC-enriched isolates for experiments. For the remaining adhered cells, largely astrocytes, these were removed with 0.25% trypsin and after centrifugation and washing, these astrocytes were plated at a density of 1.0×10^5 cells in flat bottom 96-well plates coated with 10 μg/ml poly-L-lysine. Cells were grown for 7 days at 37° C. and 5% CO2 in MGM and daily media changes. Astrocytes were carefully removed with EDTA treatment (0.2 g EDTA (Na4) per liter PBS, 30 minutes at 37° C. and 5% CO2) and mechanical dislodgement with a micropipetter. The remaining ECM left behind was covered with PBS at 4° C. until OPCs were seeded. Enriched OPCs from mixed glial cultures were seeded at a density of 5-10×10^4 cells per well in OPC media and grown at 37° C. and 8.5% CO2 for 18-24 h and then were fixed with 4% ice-cold paraformaldehyde at 4° C. for 10 min, rinsed with PBS, and stored at 4° C. until immunocytochemistry. […]

TNFα = TNFα ELISA of LPS-stimulated bone marrow-derived macrophages; assay type: cell-based, mouse; conditions: BMDMs, 50 μM, LPS 100 ng/ml, 24 hours
Experimental: Multiple Sclerosis: Mechanisms and Immunotherapy. Neuron 97, 742-768 (2018)]. It was tested whether the sugar analogs could affect the activity of macrophages, using bone marrow-derived macrophages (BMDMs) stimulated with lipopolysaccharide (LPS, 100 ng/ml). The sugar analogs were added at 50 μM prior to LPS, and the conditioned medium was collected after 24 hours and assayed for levels of the secreted cytokine TNFα. […] Testing Toxicity of Sugar Analogs
Femurs were carefully removed from euthanized female C57BI/6 mice, and marrow was flushed into a culture plate with cold complete bone marrow growth medium (DMEM, 10% fetal bovine serum, and the supplements 1% penicillin/streptomycin, 1% glutamine, 1% non-essential amino acids, and 10% supernatant from L929 cell-line enriched in macrophage-colony stimulating factor). Cells were spun at 1100 rpm for 10 minutes, resuspended in fresh growth medium and plated at 10×10^6 cells/ml in a 10 cm culture dish. Cells were grown in DMEM with supplements and L929 supernatant for 5 days, then half the medium was replaced with fresh growth medium. On day 7 growth medium was replaced with DMEM with 10% FBS and supplements. Cells were used on day 8, and experiments were conducted in DMEM with 1% FBS and supplements unless otherwise specified.
BMDM were plated at 25,000 cells in 96-well plates in DMEM+L929 media. After 24 hours media was changed to DMEM+1% FBS. One hour later, cells were treated with […] compounds or PBS. After 1 hour LPS (final concentration 100 ng/ml) was added. Following 24 hours, conditioned media was harvested for TNFα ELISA (Thermo Scientific), which was performed according to manufacturer's instructions.

mouse astrocytes = test: Propidium iodide/calcein AM toxicity on astrocytes; assay type: cell-based; conditions: 100 μM, 48 hours
Experimental: Toxicity on astrocytes was assayed with propidium iodide/calcein AM […]. Live cells convert calcein AM into a green fluorescent product, whereas dying/dead cells are stained with propidium iodide.
96-well plates were imaged with ImageXpress® Micro Cellular Imaging and Analysis System (Molecular Devices, Sunnyvale, CA). Twelve images per well were collected at ×10 magnification. Images were processed with MetaXpress analysis software. OPC outgrowth was calculated by the MetaExpress® “neurite outgrowth” software module which uses fluorescence and user-modified parameters to document the overall extent of processes emanating from the cell soma, regardless of size of the protrusions or the number of branches. This was previously detailed elsewhere [Cua, R. C.; Lau, L. W.; Keough, M. B.; Midha, R.; Apte, S. S.; and Yong, V. W. Overcoming neurite-inhibitory chondroitin sulfate proteoglycans in the astrocyte matrix. Glia 2013, 61 (6), 972-84]. Live-dead cell assay was calculated with MetaXpress analysis software with the “multiwavelength cell scoring”, which uses fluorescent intensity to measure co-localization of calcein AM, propidium iodide, and […]. Data from the 12 images were averaged to a single data point per well, wherein the OPC outgrowth data calculated from the MetaExpress® “neurite outgrowth” readout was divided by data from the same 12 fields of cell number that was acquired through the multiwavelength cell scoring. This provided mean outgrowth per cell per well, with four well replicates per treatment. Experiments were repeated at least twice.
A mixture was created containing propidium iodide (10 μg/ml) to stain dead cells, 10 μM Calcein AM (ThermoFisher, #C3100MP) to identify live cells, and 2 drops per ml of media of NucBlue™ Live ReadyProbes™ Reagent (ThermoFisher, #R37605) to identify nuclei. The mixture was added to plate media and incubated for 20-30 minutes at 37° C. and 5% CO2 before imaging. Excitation/emission of calcein-AM (λex 490 nm, λem 515 nm), propidium iodide (λex 535 nm, λem 617 nm), and nuclear blue (λex 350 nm, λem 461 nm) was performed using ImageXpress® Micro Cellular Imaging and Analysis System (Molecular Devices, Sunnyvale, CA) and analyzed by MetaExpress multiwavelength cell scoring program.

SMILES	effect on CSPG production by astrocytes ([1]; sodium salt)	mean process outgrowth of OPCs on astrocyte ECM [2]	TNFα production by LPS-stimulated macrophages (TNFα)	effect on CSPG production by astrocytes [1]	toxicity on astrocytes (propidium iodide/calcein AM) (mouse astrocytes)
CC(=O)O[C@@H]1[C@@H](OC(C)=O)[C@H](OCCCCCCS(=O)(=O)O)OC[C@H]1OC(C)=O [Compound 23, 6-Sulfohexyl 2,3,4-tri-O-acetyl-β-D-xylopyranoside, sodium salt]	CSPG production was not impacted; also recorded: did not decrease CSPG production in astrocytes	significantly enhanced OPC outgrowth			
CC(=O)O[C@H]1OC[C@@H](F)[C@H](OC(C)=O)[C@H]1OC(C)=O [Compound 27, 1,2,3-Tri-O-acetyl-4-deoxy-4-fluoro-α-D-xylopyranose]			enhanced TNFα levels	did not reduce CSPG production	
CC(=O)NC1C(OC(C)=O)OC(C(F)F)[C@@H](OC(C)=O)C1OC(C)=O (stereo in doubt) [Compound 18, 2-acetamido-1,3,4-tri-O-acetyl-2,6-dideoxy-6,6-difluoro-α/β-D-glucopyranose]		significantly enhanced OPC outgrowth		did not decrease CSPG production in astrocytes	
OO [Compound H2O2, reference compound]					caused a significant increase in toxicity; also recorded: caused increase in propidium iodide-positive staining
